Measurements taken from ChEMBL document CHEMBL3301562, “MMV Box screening against Plasmodium falciparum protein kinases and aminoacyl tRNA synthetases”.

Experiments:
Assay type in all cases: functional
[1] = target: T1, Cdk-related protein kinase 6 (Plasmodium falciparum, UniProt O77239); test: Final concentrations were 1.5 uM ATP, 5 mM MnCl2, and 15 ug/ml PK6 in a buffer of 100 mM Tris-HCl (pH 7.5). 50 ug/mL MBP was provided as the substrate; 10 uM staurosporine was used as a control inhibitor. Incubation time was 3 hours and 40 minutes.The catalytic activity of each kinase was considered proportional to ATP consumed, as determined from measurements of residual [ATP] with the luciferase-based reagent Kinase-Glo (Promega) following incubation. Luminescence (proportional to residual [ATP]) was measured on the plate readers FLx800 (BioTek Instruments, Winooski, VT, USA) and MicroBeta2.
T1 sequence (O77239 whole entry): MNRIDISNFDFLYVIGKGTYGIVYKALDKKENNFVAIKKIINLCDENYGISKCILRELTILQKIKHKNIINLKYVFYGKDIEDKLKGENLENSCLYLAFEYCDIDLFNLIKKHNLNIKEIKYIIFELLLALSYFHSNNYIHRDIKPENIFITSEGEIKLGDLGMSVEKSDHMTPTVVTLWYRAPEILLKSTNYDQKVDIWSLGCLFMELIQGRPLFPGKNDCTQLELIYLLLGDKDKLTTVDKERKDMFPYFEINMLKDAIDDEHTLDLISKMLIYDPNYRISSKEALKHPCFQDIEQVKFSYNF

[2] = target: T2, Putative uncharacterized protein pk7 (Plasmodium falciparum, UniProt O96214); test: Final concentrations were 1 uM ATP, 2 mM DTT, 20 mM MgCl2, 2 mM MnCl2, 0.01% BSA, and 6 ug/ml PK7, in a buffer of 20 mM Tris-HCl (pH 7.5). The enzyme itself was the only substrate present (since autophosphorylation occurs); 100 uM 1NA-PP1 was used as a control inhibitor. Incubation time was 3 hours.
T2 sequence (O96214 whole entry): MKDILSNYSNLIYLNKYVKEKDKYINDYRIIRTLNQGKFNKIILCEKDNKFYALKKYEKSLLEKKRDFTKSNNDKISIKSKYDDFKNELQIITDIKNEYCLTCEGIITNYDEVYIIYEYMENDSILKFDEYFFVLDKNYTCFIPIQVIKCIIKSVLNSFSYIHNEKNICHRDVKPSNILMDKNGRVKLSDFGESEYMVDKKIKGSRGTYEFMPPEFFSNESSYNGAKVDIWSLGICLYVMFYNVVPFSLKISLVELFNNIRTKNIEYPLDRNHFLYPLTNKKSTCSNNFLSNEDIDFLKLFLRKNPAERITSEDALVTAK

[3] = target: T3, Mitogen-activated protein kinase (Plasmodium falciparum, UniProt Q25917); test: Final concentrations were 1 uM ATP, 0.5 mM DTT, 1 mM MgCl2, 0.5 mg/mL BSA, and 10 ug/ml MAP2 in a buffer of 50 mM HEPES (pH 7.0). 0.5 mg/mL histone III-S served as the substrate (13); 100 uM AMP-PNP, an ATP analog, was used as a control inhibitor. Incubation time was 4 hours.
T3 sequence (Q25917 whole entry): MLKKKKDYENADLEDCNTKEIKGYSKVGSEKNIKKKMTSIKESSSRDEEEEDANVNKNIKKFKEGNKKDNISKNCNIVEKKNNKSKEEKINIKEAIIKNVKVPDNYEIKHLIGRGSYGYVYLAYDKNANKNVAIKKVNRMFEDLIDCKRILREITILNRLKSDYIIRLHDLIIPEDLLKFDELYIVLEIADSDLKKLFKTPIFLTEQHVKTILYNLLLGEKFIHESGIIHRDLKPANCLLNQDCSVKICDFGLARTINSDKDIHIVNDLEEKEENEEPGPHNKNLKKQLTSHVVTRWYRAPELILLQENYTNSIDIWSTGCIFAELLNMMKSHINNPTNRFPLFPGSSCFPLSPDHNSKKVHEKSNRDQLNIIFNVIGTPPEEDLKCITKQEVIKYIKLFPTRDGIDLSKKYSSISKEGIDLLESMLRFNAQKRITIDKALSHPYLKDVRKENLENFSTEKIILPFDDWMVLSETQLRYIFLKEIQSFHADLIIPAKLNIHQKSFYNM

[4] = target: Calcium-dependent protein kinase 1 (Plasmodium falciparum, UniProt P62344); test: MMV: CDPK1 Protein kinase inhibition assay using recombinant PfCDPK1, syntide 2 peptide substrate, ATP and KinaseGlo to measure % inhibition at 1 uM MMV box compound.
Chain of Calcium-dependent protein kinase 1 (P62344 whole entry): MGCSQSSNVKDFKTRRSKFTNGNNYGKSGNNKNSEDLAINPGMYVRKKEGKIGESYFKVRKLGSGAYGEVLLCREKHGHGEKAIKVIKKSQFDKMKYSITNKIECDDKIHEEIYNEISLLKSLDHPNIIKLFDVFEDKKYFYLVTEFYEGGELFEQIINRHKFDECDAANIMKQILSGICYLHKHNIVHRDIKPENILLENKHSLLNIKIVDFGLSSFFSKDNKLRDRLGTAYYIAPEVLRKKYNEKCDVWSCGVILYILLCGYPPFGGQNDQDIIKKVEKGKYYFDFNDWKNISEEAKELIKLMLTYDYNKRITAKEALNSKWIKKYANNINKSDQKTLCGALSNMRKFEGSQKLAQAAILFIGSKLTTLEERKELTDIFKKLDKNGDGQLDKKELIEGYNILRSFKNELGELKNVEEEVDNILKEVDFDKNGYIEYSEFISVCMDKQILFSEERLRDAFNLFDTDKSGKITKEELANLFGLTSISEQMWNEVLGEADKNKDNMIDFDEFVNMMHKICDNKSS

[5] = target: T4, Calcium-dependent protein kinase 4 (Plasmodium falciparum (isolate 3D7), UniProt Q8IBS5); test: MMV: CDPK4 Protein kinase inhibition assay using recombinant PfCDPK4, syntide2 peptide substrate, ATP and KinaseGlo to measure % inhibition at 1 uM MMV box compound.
T4 sequence (Q8IBS5 whole entry): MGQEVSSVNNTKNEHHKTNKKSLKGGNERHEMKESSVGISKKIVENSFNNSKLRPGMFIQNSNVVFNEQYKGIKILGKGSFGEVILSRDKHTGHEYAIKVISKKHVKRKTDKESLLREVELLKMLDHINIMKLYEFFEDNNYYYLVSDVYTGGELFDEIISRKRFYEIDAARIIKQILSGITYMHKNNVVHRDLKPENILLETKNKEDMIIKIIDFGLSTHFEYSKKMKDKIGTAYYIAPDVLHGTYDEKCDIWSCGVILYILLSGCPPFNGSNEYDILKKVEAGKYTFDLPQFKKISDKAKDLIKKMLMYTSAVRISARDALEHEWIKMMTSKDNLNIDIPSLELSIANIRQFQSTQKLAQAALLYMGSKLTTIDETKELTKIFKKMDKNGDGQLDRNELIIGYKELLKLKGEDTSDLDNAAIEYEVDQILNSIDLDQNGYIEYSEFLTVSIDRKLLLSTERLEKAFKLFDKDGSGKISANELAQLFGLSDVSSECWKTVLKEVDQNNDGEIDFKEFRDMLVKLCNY

Proline--tRNA ligase = target: T5, Proline--tRNA ligase (Plasmodium falciparum (isolate 3D7), UniProt Q8I5R7); test: MMV: ProRS recombinant Plasmodium falciparum Prolyl-tRNA-synthetase, assay with yeast tRNA, ATP, and proline and 3 uM MMV malaria box compound, assay read out with kinase glo as % inhibition.
T5 sequence (Q8I5R7 whole entry): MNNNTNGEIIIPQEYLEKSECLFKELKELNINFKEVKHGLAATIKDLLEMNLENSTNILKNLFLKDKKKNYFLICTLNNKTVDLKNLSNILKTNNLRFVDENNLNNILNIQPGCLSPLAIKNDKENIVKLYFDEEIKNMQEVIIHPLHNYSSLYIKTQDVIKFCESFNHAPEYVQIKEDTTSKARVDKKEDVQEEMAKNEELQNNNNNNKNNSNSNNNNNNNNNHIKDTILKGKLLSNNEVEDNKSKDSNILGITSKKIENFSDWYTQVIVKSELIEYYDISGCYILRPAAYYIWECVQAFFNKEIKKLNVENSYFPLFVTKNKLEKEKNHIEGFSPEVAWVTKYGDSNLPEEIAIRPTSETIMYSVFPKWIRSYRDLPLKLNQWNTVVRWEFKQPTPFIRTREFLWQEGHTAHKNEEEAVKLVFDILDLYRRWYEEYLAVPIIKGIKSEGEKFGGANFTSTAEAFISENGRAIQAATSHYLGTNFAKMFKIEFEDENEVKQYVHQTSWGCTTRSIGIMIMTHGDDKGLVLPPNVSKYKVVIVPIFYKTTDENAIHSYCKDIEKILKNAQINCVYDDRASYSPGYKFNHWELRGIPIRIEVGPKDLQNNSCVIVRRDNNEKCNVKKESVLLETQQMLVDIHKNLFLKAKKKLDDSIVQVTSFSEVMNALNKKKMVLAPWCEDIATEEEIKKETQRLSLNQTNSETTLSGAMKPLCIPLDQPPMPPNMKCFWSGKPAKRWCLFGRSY

Lysine--tRNA ligase = Lysine--tRNA ligase (Plasmodium falciparum (isolate 3D7), UniProt Q8IDJ8); test: MMV: KRS recombinant Plasmodium falciparum Lysyl-tRNA-synthetase, assay with yeast tRNA, ATP, and lysine and 3 uM MMV malaria box compound, assay read out with kinase glo as % inhibition.
Chain of Lysine--tRNA ligase (Q8IDJ8 whole entry): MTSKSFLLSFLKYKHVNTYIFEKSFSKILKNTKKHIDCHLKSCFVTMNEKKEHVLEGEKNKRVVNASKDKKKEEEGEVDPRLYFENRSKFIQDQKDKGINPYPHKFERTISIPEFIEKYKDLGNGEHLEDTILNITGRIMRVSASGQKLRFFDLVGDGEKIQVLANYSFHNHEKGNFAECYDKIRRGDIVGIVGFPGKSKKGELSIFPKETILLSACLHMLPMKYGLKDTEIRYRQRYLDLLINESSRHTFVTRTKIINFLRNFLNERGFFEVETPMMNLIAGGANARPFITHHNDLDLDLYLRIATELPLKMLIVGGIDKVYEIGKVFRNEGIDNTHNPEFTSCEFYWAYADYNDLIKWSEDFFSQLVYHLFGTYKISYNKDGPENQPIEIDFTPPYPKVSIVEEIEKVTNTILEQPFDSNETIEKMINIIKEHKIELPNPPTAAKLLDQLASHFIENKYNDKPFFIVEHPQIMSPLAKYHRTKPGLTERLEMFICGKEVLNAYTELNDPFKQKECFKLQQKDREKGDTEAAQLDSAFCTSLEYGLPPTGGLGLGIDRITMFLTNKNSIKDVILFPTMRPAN

SMILES	IC50 [1] [µM]	IC50 [2] [µM]	IC50 [3] [µM]	IC50 [4] [µM]	IC50 [5] [µM]	IC50 (Proline--tRNA ligase) [µM]	IC50 (Lysine--tRNA ligase) [µM]
O=[N+]([O-])c1ccc(C=NNc2nc3ccccc3[nH]2)cc1	> 1	> 1	> 1	> 1	> 1	> 2.5	> 2.5
COc1ccc(C2=C(c3ccc(OC)cc3)C3(c4ccccc4)C(=O)C2(c2ccccc2)C2C(=O)N(c4ccc(C)cc4)C(=O)C23)cc1 (configuration not stated)	> 1	> 1	> 1	> 1	> 1	> 2.5	> 2.5
CCOC(=O)c1c(NC(=O)c2ccccc2)sc2c(O)c(CN(CC)CC)ccc12	> 1	> 1	> 1	> 1	> 1	> 2.5	> 2.5
COc1ccc(C=C2SC(=N)N(c3ccccc3OC)C2=O)cc1	> 1	> 1	> 1	> 1	> 1	> 2.5	> 2.5
COc1ccc(NC(=O)C2c3ccccc3C(=O)N(CC(C)C)C2c2cccs2)cc1Cl (configuration not stated)	> 1	> 1	> 1	> 1	> 1	> 2.5	> 2.5
COc1ccccc1CNC(=O)CCn1c(=O)[nH]c2ccccc2c1=O	> 1	> 1	> 1	> 1	> 1	> 2.5	> 2.5
Oc1ccccc1CNCC12CC3CC(CC(C3)C1)C2	> 1	> 1	> 1	> 1	> 1	> 2.5	> 2.5
CNCCCNc1ccnc2cc(Cl)ccc12	> 1	> 1	> 1	> 1	> 1	> 2.5	> 2.5
CC1CCN(Cc2ccc(NC(=O)c3cc4ccc5cccnc5c4[nH]3)cc2)CC1	> 1	> 1	> 1	> 1	> 1	> 2.5	> 2.5
CSc1ccccc1C(=O)Nc1nc(-c2ccccn2)cs1	> 1	> 1	> 1	> 1	> 1	> 2.5	> 2.5
COc1ccc(C(C)=O)cc1N1C(=O)C2C(C1=O)C1(c3ccccc3)C(=O)C2(c2ccccc2)C(c2ccc(C)cc2)=C1c1ccc(C)cc1 (configuration not stated)	> 1	> 1	> 1	> 1	> 1	> 2.5	> 2.5
